Data published in patent US20170087109A1, “COMPOSITIONS AND METHODS FOR TREATING BLACKHEADS” (Johnson & Johnson Consumer Inc., priority 2015, published 2017).

Test: Blackhead dissolution test (extracted blackheads submerged in test material, graded by expert inspection)
Design: species or system human
Conditions: blackhead submerged in approximately 100 microliters test material for 24 hours at room temperature, no agitation; 1 = not dissolved, 7 = completely dissolved
Procedure: A series of compounds and compositions were tested for their ability to dissolve blackheads as follows.
The blackheads were extracted from human volunteers using a comedone extracator. They were placed in a 24 or 96 well plate and submerged into approximately 100 microliters of each test material listed in Table 1 for 24 hours at room temperature ([…]). Gray color cards (GretagMacbeth ColorChecker™ Color Rendition Chart-Neutral 8 (0.23) CC20) were used underneath and measurements were made using a WILD M10 microscope at 40x, no agitation. The plates were covered with parafilm to avoid evaporation, and each test solution was removed at 24 hours and allowed to dry overnight. The amount of blackhead dissolved was graded by expert inspection on a scale from 1-7, 1 being not dissolved, and 7 being completely dissolved as shown in Table 1.

[Na+].[OH-] [0.1M NaOH, NaOH, reference compound]
Outcome at 24 hours (amount of blackhead dissolved, grade on scale 1-7): 4.33 ± 0.58

CCCCCCCCCCCCCC(=O)O [10% Myristic acid in KOH, Myristic acid]
Outcome at 24 hours (amount of blackhead dissolved, grade on scale 1-7): 6.00 ± 0.01

CCCCCCCC/C=C\CCCCCCCC(=O)O [10% Oleic acid in KOH, Oleic acid]
Outcome at 24 hours (amount of blackhead dissolved, grade on scale 1-7): 7.00 ± 0.01
